For the test, the system named is EAE mice. In words: Active EAE (MOG33-55/CFA), 4EGI-1 from initiation of EAE. The class given is in vivo, mouse. As for the experimental part:
Ten-week old female mice purchased from Jackson Laboratory were subcutaneously injected at two sites with 100 μL […] emulsified in CFA (Hooke Labs) per flank. On the same day, 6 hours later, and on day 2, mice were injected with 100 ng of pertussis toxin in 200 μL i.p. Mice were monitored daily and scored on a scale of 0-5 where 0, no disease; 1, tail paralysis; 2; hind limb paresis; 3, complete hind limb paralysis; 4, front limb weakness and hind limb paralysis, and 5, moribund state. When stated, mice were either administered 25 mg/kg 4EGI-1 or vehicle i.p. from d 0 to 21 following EAE induction or 75 mg/kg 4EGI-1 or vehicle i.p. from day 12 to 21 following EAE induction and randomization. LFB-H images imported into FIJI underwent color deconvolution to isolate myelin staining. A binary image was generated and % myelination of the spinal cord was calculated. Spinal cords from mice not subjected to EAE were set to 100% and all other samples from the same group were normalized. H&E images imported into FIJI underwent color deconvolution to isolate hematoxylin staining. A binary image was generated and % infiltration of the spinal cord of was calculated. Five-micron sections of paraffin embedded tissue were stained with Akoya Biosciences® Opal™ multiplex automation kit reagents unless stated otherwise. Automated staining was performed on Leica BondRX® autostainer. The protocol was performed according to manufacturers' instructions with primary antibodies to CD19 (Cell Signaling Technology, cat #90176) and CD4 (Cell Signaling Technology, cat #25229). Briefly, all slides underwent sequential epitope retrieval with Leica Biosystems epitope retrieval 2 solution (EDTA based, pH9, Cat. AR9640), primary and secondary antibody incubation and tyramide signal amplification (TSA) with Opal® fluorophores Op690 and Op520. Primary and secondary antibodies were removed during epitope retrieval steps while fluorophores remain covalently attached to the epitope. Semi-automated image acquisition was performed on a Vectra® Polaris multispectral imaging system. After whole slide scanning at 10× the tissue was manually outlined to select fields for multispectral imaging at 20×. Phenochart® software from Akoya Biosciences was used for spectral unmixing of the whole slide scans. Scans were imported into QuPath and representative images were exported into FIJI.

As to `O=C(O)C(Cc1ccccc1[N+](=O)[O-])=NNc1nc(-c2ccc(Cl)c(Cl)c2)cs1` (mixture of isomers) [4EGI-1], under “25 mg/kg daily i.p., day 0 to 21”, the “clinical EAE severity (daily clinical score)” value is recorded as “significantly reduced”. Also, the disease-associated weight loss result (25 mg/kg daily i.p., from EAE induction) is “significantly reduced”. The “ELFs (ectopic lymphoid follicles) in spinal cord” value (25 mg/kg daily, EAE mice) is on record as “substantially reduced”. In addition, for the setting “25 mg/kg daily, EAE mice, immunofluorescence”, the “numbers of CD4+ T and B cells in the spinal cords” value is “strongly reduced”. Also, the “level of myelination of the spinal cord (normal = 100%)” value (25 mg/kg daily, Luxol fast blue) is given as about 98%. Under “25 mg/kg daily, day 21 of EAE”, the “CD4+ T cells producing IFN-γ in spinal cord and brain” value is listed as “almost abolished”; the “CD4+ T cells producing IL-17A in spinal cord and brain” value is recorded as “almost abolished”; the “reduction of CD4+ T cells in the brain” value was determined as 3 fold; the “reduction of CD4+ T cells in the spinal cord” value came out at 3 fold. Where the note is “25 mg/kg daily, day 21 of EAE”, the “reduction of TFH cells in the spleen” value is reported as 3 fold.
